Assays:
[1] = Accelerated stability test (ICH conditions); type: physicochemical; conditions: accelerated: 40±2° C., 75±5% relative humidity; for Assay of Levofolinic acid (% m/m): anhydrous and solvent free basis; for Appearance: specification white to pale yellow powder
Protocol: (§1) Two specimens of the product obtained in example 1 are subjected to accelerated stability tests and long-term stability tests, respectively; the tests are carried out according to ICH conditions. Accelerated: 40±2° C., 75±5% relative humidity Analytical methods used for the stability studies tests are described in the calcium levofolinate monograph of the European Pharmacopoeia.

[2] = Long-term stability test (ICH conditions); type: physicochemical; conditions: long-term: 25±2° C., 60±5% relative humidity; for Assay of Levofolinic acid (% m/m): anhydrous and solvent free basis; for Appearance: specification white to pale yellow powder
Protocol: as §1, with “Long-term: 25±2°” for “Accelerated: 40±2°”, “60±5%” for “75±5%”

## Nc1nc(=O)c2c([nH]1)NC[C@H](CNc1ccc(C(=O)N[C@@H](CCC(=O)O)C(=O)O)cc1)N2C=O [Example 1, (6S)—N(5)-formyl-5,6,7,8-tetrahydrofolic acid]
[1]; 0 months
  Aspect of a 1.0% w/v solution in Tris buffer solution corrected at pH = 8.1: Absorbance at 420 nm: 0.06
  Content of Dextrofolinic acid (H): <0.10%
  Optical rotation of a 1.0% w/v solution in Tris solution corrected at pH = 8.1: −12.8 °
  Related substances: 5-CHO—4H-Pteroic acid (E) (% area): 0.36 % area
  Related substances: Any individual unknown impurities: <0.10 % area
  Related substances: Dihydrofolic acid (G) (% area): <0.10 % area
  Related substances: Folic acid (C) (% area): <0.10 % area
  Related substances: N^5-N^10-diformyl-THF (B) (% area): <0.10 % area
  Related substances: N^10—CHO-dihydrofolic acid (F) (% area): <0.10 % area
  Related substances: N^10—CHO-folic acid (D) (% m/m): <0.10 % m/m
  Related substances: PABG (A) (% area): <0.10 % area
  Sum of all relates substances (% area): 0.57 % area
  Water content (%): 0.8%
  Assay of Levofolinic acid (% m/m): 99.7 % m/m
  Appearance: Conform
[1]; 3 months
  Aspect of a 1.0% w/v solution in Tris buffer solution corrected at pH = 8.1: Absorbance at 420 nm: 0.05
  Related substances: 5-CHO—4H-Pteroic acid (E) (% area): 0.37 % area
  Related substances: Any individual unknown impurities: <0.10 % area
  Related substances: Dihydrofolic acid (G) (% area): <0.10 % area
  Related substances: Folic acid (C) (% area): <0.10 % area
  Related substances: N^5-N^10-diformyl-THF (B) (% area): <0.10 % area
  Related substances: N^10—CHO-dihydrofolic acid (F) (% area): 0.16 % area
  Related substances: N^10—CHO-folic acid (D) (% m/m): <0.10 % m/m
  Related substances: PABG (A) (% area): <0.10 % area
  Sum of all relates substances (% area): 0.63 % area
  Water content (%): 0.8%
  Assay of Levofolinic acid (% m/m): 99.9 % m/m
  Appearance: Conform
[1]; 6 months
  Aspect of a 1.0% w/v solution in Tris buffer solution corrected at pH = 8.1: Absorbance at 420 nm: 0.06
  Content of Dextrofolinic acid (H): <0.10%
  Related substances: 5-CHO—4H-Pteroic acid (E) (% area): 0.33 % area
  Related substances: Any individual unknown impurities: <0.10 % area
  Related substances: Dihydrofolic acid (G) (% area): <0.10 % area
  Related substances: Folic acid (C) (% area): <0.10 % area
  Related substances: N^5-N^10-diformyl-THF (B) (% area): <0.10 % area
  Related substances: N^10—CHO-dihydrofolic acid (F) (% area): 0.25 % area
  Related substances: N^10—CHO-folic acid (D) (% m/m): <0.10 % m/m
  Related substances: PABG (A) (% area): 0.13 % area
  Sum of all relates substances (% area): 0.84 % area
  Water content (%): 1.1%
  Assay of Levofolinic acid (% m/m): 99.0 % m/m
  Appearance: Conform
[2]; 0 months
  Aspect of a 1.0% m/V solution in Tris solution corrected at pH = 8.1: Absorbance at 420 nm: 0.06
  Content of Dextrofolinic acid (H): <0.10%
  Optical rotation of a 1.0% m/V solution in Tris solution corrected at pH = 8.1: −12.8 °
  Related substances: 5-CHO-4H-Pteroic acid (E) (% area): 0.36 % area
  Related substances: Any individual unknown impurities: <0.10 % area
  Related substances: Dihydrofolic acid (G) (% area): <0.10 % area
  Related substances: Folic acid (C) (% area): <0.10 % area
  Related substances: N^5-N^10-diformyl-THF (B) (% area): <0.10 % area
  Related substances: N^10-CHO-dihydrofolic acid (F) (% area): <0.10 % area
  Related substances: N^10-CHO-folic acid (D) (% m/m): <0.10 % m/m
  Related substances: PABG (A) (% area): <0.10 % area
  Sum of all relates substances (% area): 0.57 % area
  Water content (%): 0.8%
  Assay of Levofolinic acid (% m/m): 99.7 % m/m
  Appearance: Conform
[2]; 3 months
  Aspect of a 1.0% m/V solution in Tris solution corrected at pH = 8.1: Absorbance at 420 nm: 0.05
  Related substances: 5-CHO-4H-Pteroic acid (E) (% area): 0.31 % area
  Related substances: Any individual unknown impurities: <0.10 % area
  Related substances: Dihydrofolic acid (G) (% area): <0.10 % area
  Related substances: Folic acid (C) (% area): <0.10 % area
  Related substances: N^5-N^10-diformyl-THF (B) (% area): <0.10 % area
  Related substances: N^10-CHO-dihydrofolic acid (F) (% area): 0.13 % area
  Related substances: N^10-CHO-folic acid (D) (% m/m): <0.10 % m/m
  Related substances: PABG (A) (% area): <0.10 % area
  Sum of all relates substances (% area): 0.49 % area
  Water content (%): 0.8%
  Assay of Levofolinic acid (% m/m): 100.6 % m/m
  Appearance: Conform
[2]; 6 months
  Aspect of a 1.0% m/V solution in Tris solution corrected at pH = 8.1: Absorbance at 420 nm: 0.06
  Content of Dextrofolinic acid (H): <0.10%
  Related substances: 5-CHO-4H-Pteroic acid (E) (% area): 0.34 % area
  Related substances: Any individual unknown impurities: <0.10 % area
  Related substances: Dihydrofolic acid (G) (% area): <0.10 % area
  Related substances: Folic acid (C) (% area): <0.10 % area
  Related substances: N^5-N^10-diformyl-THF (B) (% area): <0.10 % area
  Related substances: N^10-CHO-dihydrofolic acid (F) (% area): 0.15 % area

From patent US20120245177A1, “CRYSTALLINE LEVOFOLINIC ACID AND PROCESS FOR ITS PREPARATION” (GMT FINE CHEMICALS SA, priority 2011, published 2012)
